This passage reports LC retention time results from the RepoRT retention time repository (doi:10.1007/s00216-021-03828-0).

Structures can show the parent of a compound that is named as a salt.

Conditions in all cases: stereoisomer not certain
Series [1] in a line: RP, Merck Supelco Ascentis Express C18, 100 × 2.1 mm, 2 µm, 40 °C, 0.35 mL/min, estimated dead time 0.63 min; A: water + 0.1% formic acid, pH 3; B: acetonitrile + 0.1% formic acid, pH 3; gradient (min/%B) 0/5 2/5 17/99.9 20/99.9.
Series [2] can be described thus: RP, Merck Supelco Ascentis Express C18, 100 × 2.1 mm, 2 µm, 40 °C, 0.4 mL/min, estimated dead time 0.55 min; A: water + 0.1% formic acid, pH 3; B: acetonitrile + 0.1% formic acid, pH 3; gradient (min/%B) 0/5 2/5 17/99.9 20/99.9.
Series [3] in a line: RP, Merck Supelco Ascentis Express C18, 100 × 2.1 mm, 2 µm, 40 °C, 0.2 mL/min, estimated dead time 1.1 min; A: water + 0.1% formic acid, pH 3; B: acetonitrile + 0.1% formic acid, pH 3; gradient (min/%B) 0/5 2/5 17/99.9 20/99.9.
Assay in series [4]: as above
This is another data set of the same source.

A short description of series [5]: RP, Merck Supelco Ascentis Express C18, 100 × 2.1 mm, 2 µm, 40 °C, 0.25 mL/min, estimated dead time 0.88 min; A: water + 0.1% formic acid, pH 3; B: acetonitrile + 0.1% formic acid, pH 3; gradient (min/%B) 0/5 2/5 17/99.9 20/99.9.
Series [6] in a line: RP, Merck Supelco Ascentis Express C18, 100 × 2.1 mm, 2 µm, 39 °C, 0.3 mL/min, estimated dead time 0.73 min; A: water + 0.1% formic acid, pH 3; B: acetonitrile + 0.1% formic acid, pH 3; gradient (min/%B) 0/5 2/5 17/99.9 20/99.9.
The nature of series [7]: RP, Merck Supelco Ascentis Express C18, 100 × 2.1 mm, 2 µm, 40 °C, 0.4 mL/min, estimated dead time 0.55 min; A: water + 0.1% formic acid, pH 3; B: acetonitrile + 0.1% formic acid, pH 3; gradient (min/%B) 0/5 2/5 17/99.9 20/99.9. This is another data set of the same source.

Turning to `Nc1nc2c(ncn2C2OC(COP(=O)(O)OP(=O)(O)OC3OC(CO)C(O)C(O)C3O)C(O)C2O)c(=O)[nH]1` (stereo not given) [GUANOSINE DIPHOSPHATE MANNOSE], the LC retention time in series [1] was 0.757 min.
`Nc1ccc(C(=O)O)cc1` [4-AMINOBENZOATE]: the LC retention time was 4.3 min in series [1], 3.93 min in series [2] and 5.87 min in series [3].
Turning to `CCCCCCCCC(=O)[O-]` [NONANOATE], the LC retention time in series [4] was 11.7 min; in series [5] it was 11.1 min; in series [6], 10.5 min; in series [7], 9.85 min; in series [3] it was 11.7 min.
Take `COC(=O)c1ccc(O)c(OC)c1` [METHYL VANILLATE]: the LC retention time in series [1] is 3.91 min; in series [2], 3.63 min; in series [3], 5.99 min.
On to `Cc1cn(C2CC(O)C(COP(=O)(O)OP(=O)(O)OC3OC(CO)C(O)C(O)C3O)O2)c(=O)[nH]c1=O` [DTDP-D-GLUCOSE], for which the LC retention time in series [2] is 0.667 min.
As for `CC1NCCc2cc(O)c(O)cc21` (stereo not given) [SALSOLINOL], the LC retention time in series [1] is 0.82 min; in series [2], 0.68 min; in series [3], 1.44 min.
`CC(CCC(=O)O)C1CCC2C3C(O)CC4CC(O)CCC4(C)C3CCC12C` (stereo not given) [URSODEOXYCHOLATE]: the LC retention time in series [1] was 10.8 min; in series [2], 10.5 min; in series [3] it was 12.2 min.
Take `CCOC(=O)C(=O)C(C)C(=O)OCC` (stereo not given) [DIETHYL 2-METHYL-3-OXOSUCCINATE]: the LC retention time is 4.92 min in series [1] and 6.29 min in series [3].
In the case of `O=C(O)c1cccnc1C(=O)O` [QUINOLINATE], the LC retention time is 1.38 min in series [4], 1.07 min in series [5], 0.937 min in series [6] and 1.38 min in series [3].
In the case of `O=Cc1cccc(O)c1` [3-HYDROXYBENZALDEHYDE], the LC retention time in series [1] is 3.94 min; in series [2] it was 3.59 min; in series [3], 5.47 min.
For `CC(=O)NC(CCC(=O)O)C(=O)O` (stereo not given) [N-ACETYLGLUTAMATE], the LC retention time in series [4] is 1.36 min; in series [5], 1.06 min; in series [6] it was 0.897 min; in series [3], 1.35 min.
On to `O=C(O)CCC(=O)O` [SUCCINATE], for which the results for the LC retention time in series [1], in series [2] and in series [3] were 0.827 min, 0.73 min and 1.49 min, respectively.
As for `COc1cc(C(O)C(=O)O)ccc1O` (stereo not given) [3-METHOXY-4-HYDROXYMANDELATE], the figures for the LC retention time in series [1], in series [2] and in series [3] were 1.21 min, 1.04 min and 2.12 min, respectively.
Regarding `Nc1ccccc1C(=O)CC(N)C(=O)O` (stereo not given) [KYNURENINE], the LC retention time in series [2] was 1.05 min.
As to `Oc1ccccc1O` [PYROCATECHOL], the LC retention time in series [1] is 1.78 min; in series [5], 3.05 min; in series [7] it was 1.55 min; in series [2] it was 1.52 min.
For `COC(=O)CCCC(=O)O` [MONOMETHYLGLUTARATE], the LC retention time in series [1] is 2.33 min; in series [2] it was 2.02 min; in series [3], 3.99 min.
Turning to `CC(C)CC(=O)C(=O)O` [KETOLEUCINE], the figures for the LC retention time in series [1], in series [2] and in series [3] were 0.88 min, 0.77 min and 4.65 min, respectively.
With `Nc1ncnc2c1ncn2C1CC(O)C(CO)O1` (stereo not given) [DEOXYADENOSINE], the LC retention time was 0.77 min in series [1]; 1.38 min in series [4]; 1.09 min in series [5]; 0.883 min in series [6]; 0.667 min in series [7].
Turning to `CCCCCC=CCC=CCCCCCCCC(=O)O` [LINOLEATE], the LC retention time in series [1] is 15.3 min; in series [7], 13.1 min; in series [3], 17 min.
Regarding `CCCCCCC(=O)O` [HEPTANOATE], the LC retention time in series [1] was 5.36 min; in series [3] it was 6.69 min.
For `O=C(O)C(O)c1ccc(O)c(O)c1` (stereo not given) [3,4 DIHYDROXYMANDELATE], the values for the LC retention time in series [1], in series [2] and in series [3] were 0.79 min, 0.677 min and 1.41 min, respectively.
Take `c1ncc2[nH]cnc2n1` [PURINE]: the LC retention time in series [1] is 0.757 min; in series [4] it was 1.35 min; in series [5], 1.07 min; in series [3], 1.34 min.
As to `CC(CCC(=O)O)C1CCC2C3CCC4CC(O)CCC4(C)C3CC(O)C12C` (stereo not given) [DEOXYCHOLATE], the LC retention time in series [1] is 10.8 min.
Regarding `Nc1nc2c(ncn2C2OC(CO)C(O)C2O)c(=O)[nH]1` (stereo not given) [GUANOSINE], the LC retention time in series [1] is 0.757 min; in series [4] it was 1.37 min; in series [5], 1.09 min; in series [6] it was 0.89 min; in series [7] it was 0.667 min; in series [3], 1.36 min.
In the case of `O=S(=O)(O)Oc1c[nH]c2ccccc12` [INDOXYL SULFATE], the LC retention time in series [1] is 3.57 min; in series [2], 3.2 min.
On to `Cc1cc2nc3c(=O)[nH]c(=O)nc-3n(CC(O)C(O)C(O)COP(=O)(O)OP(=O)(O)OCC3OC(n4cnc5c(N)ncnc54)C(O)C3O)c2cc1C` (stereo not given) [FAD], for which the LC retention time in series [1] was 3.77 min; in series [2], 3.63 min; in series [3] it was 4.67 min.
Take `COc1cc(C(O)CO)ccc1O` (stereo not given) [4-HYDROXY-3-METHOXYPHENYLGLYCOL]: the LC retention time in series [1] is 1.21 min; in series [2] it was 1.07 min.
For `CCCCCCCCCC(=O)O` [DECANOATE], the LC retention time in series [4] is 12.7 min; in series [5], 12 min; in series [6] it was 11.5 min; in series [7], 10.8 min; in series [3], 12.8 min.
With `OCC(O)C(O)CO` (stereo not given) [ERYTHRITOL], the LC retention time in series [1] was 0.997 min; in series [2] it was 0.87 min.
The like results for `CCCCCCCCC=CCCCCCCCCCCCC(=O)O` [ERUCATE] were, in that order, 18.2 min and 17.8 min.
Regarding `CCCCCCC=CCCCCCCCC(=O)[O-]` [PALMITOLEATE], the LC retention time in series [4] was 16.7 min; in series [5], 15.9 min; in series [6], 15.3 min; in series [7], 14.6 min; in series [2] it was 14.5 min; in series [3] it was 16.7 min.
As for `CC(CCCC(C)(C)O)C1CCC2C3CC=C4CC(O)CCC4(C)C3CCC12C` (stereo not given) [25-HYDROXYCHOLESTEROL], the LC retention time in series [4] is 13.4 min; in series [5] it was 18.3 min; in series [6], 17.8 min; in series [7], 17 min.
In the case of `CCCCCCCC(=O)O` [CAPRYLATE], the LC retention time was 9.28 min in series [1]; 10.7 min in series [4]; 10 min in series [5]; 9.52 min in series [6]; 8.82 min in series [7].
`O=C1CCCCO1` [5-VALEROLACTONE]: the LC retention time in series [4] is 3.96 min; in series [5] it was 3.24 min; in series [6], 2.73 min; in series [7], 2.06 min.
With `CCCCCCCCCCCCCCCCCCCC(=O)O` [ARACHIDATE], the LC retention time was 18.3 min in series [1] and 17.9 min in series [2].
Consider `CC(C)CCCC(C)C1CCC2C3=CC=C4CC(O)CCC4(C)C3CCC21C` (stereo not given) [7-DEHYDROCHOLESTEROL], for which the LC retention time in series [4] was 11.4 min; in series [5], 10.8 min; in series [6] it was 15.1 min; in series [7], 9.92 min.
Turning to `O=C/C=C/c1ccccc1` [TRANS-CINNAMALDEHYDE], the LC retention time in series [4] was 11.7 min; in series [5], 11.1 min; in series [6] it was 10.7 min; in series [7], 10.1 min.
The corresponding values for `CC12CCC(=O)C=C1CCC1C2C(O)CC2(C)C(C(=O)CO)CCC12` (stereo not given) [CORTICOSTERONE] are 9.16 min, 8.66 min, 8.25 min and 7.73 min.
On to `CC(=CCC1=C(C)C(=O)c2ccccc2C1=O)CCCC(C)CCCC(C)CCCC(C)C` (stereo not given) [PHYLLOQUINONE], for which the LC retention time was 15.5 min in series [4], 14.7 min in series [5], 14.1 min in series [6] and 13.3 min in series [7].
As to `CC(C)=CCCC(C)C1CCC2C3CC=C4CC(O)CCC4(C)C3CCC12C` (stereo not given) [DESMOSTEROL], the LC retention time is 16.6 min in series [4], 15.8 min in series [5], 15.1 min in series [6] and 14.3 min in series [7].
